Data taken from patent US10035816B2, “Compound for treating respiratory syncytial virus infection and preparation method and use thereof” (SHANDONG UNIVERSITY, priority 2016, dated 2018).

Columns and labels:
Type in all cases: cell-based
[1] = tested on: Human respiratory syncytial virus Long strain; test: RSV replication assay (virus yield / focus titration in HEp-2 cells); settings: for maximum inhibition effect on RSV replication: compounds tested at 2 ìM and 8 ìM, HEp-2 cells, MOI 0.1, compared with blank control (FIG. 4)
Procedure: The detection procedure of compound effect on RSV replication inhibiting is as following. Human respiratory syncytial virus Long strain and HEp-2 cells were used for infection assays. Cells were maintained in DMEM, supplemented with penicillin/streptomycin and 10% FBS, and incubated at 37° C., 5% CO2. Virus was passaged in HEp-2 cells in the same conditions, but with 2% FBS. Virus stocks were prepared by infecting confluent HEp-2 cells at a low multiplicity of infection (MOI) of 0.1 for two to three days. Cells and virus-containing supernatant were then subjected to a single freeze/thaw cycle at −80° C. to release cell-bound virus, and the sample was clarified by centrifugation at 2000×g for 10 min at 4° C. The supernatant was homogenized, aliquoted and stored at −20° C.
Compounds were tested either during virus adsorption for 1 h at 4° C. to investigate viral entry, post-adsorption for 72 h at 37° C. to investigate viral propagation and replication, or during all stages of infection. The concentration of compound resulting in 50% inhibition (IC50) of virus replication was determined by focus counting (viral entry) or focus size measurement (viral propagation) and was determined using non-linear regression analysis using GraphPad Prism. To assess the cytotoxicity of compounds, a CellTiter-Glo Luminescent Cell Viability Assay was carried following the manufacturer's instruction in the conditions of the focus reduction assay.
As shown in the figure, compounds were tested at 2 concentrations (2 ìM, 8 ìM) in the RSV replication assay. The control (compound-free) is scored at 100% replication.
Human respiratory syncytial virus Long strain (ATCC reference VR-26) and HEp-2 cells (ATCC reference CCL-23) were used for infection assays. Cells were maintained in DMEM, supplemented with penicillin/streptomycin and 10% FBS, and incubated at 37° C., 5% CO2. Virus was passaged in HEp-2 cells in the same conditions, but with 2% FBS. Virus stocks were prepared by infecting confluent HEp-2 cells at a low multiplicity of infection (MOI) of 0.1 for two to three days. […]

[2] = tested on: Smo-dependent SAG induced gene expression (Hh signal pathway); test: Hedgehog (Hh) signal pathway inhibition assay, Gli-binding site-luciferase reporter in NIH3T3 cells; settings: compound 10 uM, SAG 0.5 ìM, control (compound-free, presence of SAG) = 100% gene expression (FIG. 5)
Procedure: The detection procedure of compound effect on Hh signal pathway inhibiting is as following. NIH3T3 cells are seeded cells in 6 well plates, or 12 well plate one day in advance, with 5% FBS DMEM, without antibiotics per well so that they will be 90˜95% confluent at the time of transfection. Plasmids are diluted with Lipofectamine 2000 (total volume is 100-1000 ìl) and added to each well containing cells and medium, followed by incubation at 37° C. in a CO2 incubator for 48 h. […] At the end of the incubation, cells are washed, lysed and lysate transferred to a 96-well white plate. LAR II reagent is added (from Promega, Dual-luciferase reporter assay system) and samples read in a luminescence reader.
The control (compound-free, presence of SAG) is scored at 100% gene expression.

[3] = tested on: RSV replication and Hh activity; test: Coefficient of inhibition (ICrh): RSV replication inhibition vs. Hh pathway inhibition relative to CPM; settings: ratio of RSV inhibition to Hh inhibition of the analog divided by the same ratio of CPM; >1 favorable (FIG. 6)
Excerpt: To assess the differential Hh pathway inhibition vs. replication inhibition of analogs (cpd), we determined a coefficient of inhibition (ICrh).
A score higher than 1 indicates a favorable profile.
The substep of screening compounds is that selecting the compounds with ICrh data larger than 1, and filtering out the compounds with ICrh data smaller than 1. Furthermore, the compounds with larger ICrh data will be selected preferentially.

Compound	maximum inhibition effect on RSV replication [1] [%]	inhibition of SAG-induced gene expression [2] [%]	coefficient of inhibition on RSV replication and Hh activity (ICrh) [3]	RSV replication in the presence of compound ([1]; compound-free control scored at 100% replication (FIG. 4)) [%]
CCNC(=O)O[C@H]1CC[C@@]2(C)C(=CC[C@H]3[C@@H]4CC[C@]5(O[C@@H]6C[C@H](C)CN(C(=O)C(F)(F)F)[C@H]6[C@H]5C)C(C)=C4C[C@@H]32)C1 [S1-2]	99	36	1.446	
CC1=C2C[C@H]3[C@@H](CC=C4C[C@@H](OC(=O)NC5CC5)CC[C@@]43C)[C@@H]2CC[C@]12O[C@@H]1C[C@H](C)CN(C(=O)C(F)(F)F)[C@H]1[C@H]2C [S1-4]	88	5	1.617	
cyclopamine [CPM, reference compound]		56		0
